Patent US9119847B2, “Neferine and the use thereof in treating huntington disease” (Macau University of Science and Technology, priority 2013, dated 2015)

Columns and labels:
[1] = ref. [14]; cited from earlier work
[2] = system: EGFP-HDQ74 transfected Atg7 wild-type MEFs; assay: Mutant huntingtin aggregates in EGFP-HDQ74 transfected Atg7 wild-type MEFs; format: cell-based, mouse; conditions: 7.5 μM neferine, 24 h, Atg7+/+ cells (FIGS. 5A, 5B)
Procedure: (§1) In brief, both EGFP-HDQ74 transfected Atg7 wild-type and deficient mouse embryonic fibroblasts (MEFs) grown on coverslips in a 6-well plate were treated with indicated concentrations of neferine. The cells were then fixed in 4% paraformaldehyde for 20 minutes at room temperature and then rinsed with PBS. Slides were mounted with FluorSave™ mounting media (Calbiochem, San Diego, Calif.) and examined by fluorescence microscopy. The number of cells with GFP-aggregates formation was examined under the Nikon ECLIPSE 80i microscope. Representative images were captured with CCD digital camera Spot RT3™ (Diagnostic Instruments, Inc., Melville, N.Y.). To quantify for the clearance of mutant huntingtin, the percentage of cells with GFP-aggregates was calculated by counting the number of the cells with […] in GFP-positive cells. A minimum of 150 cells from 3 randomly selected fields was scored.

PC-12 cells [3] = assay: Quantification of autophagy GFP-LC3 puncta in PC-12 cells; format: cell-based, rat
Procedure: GFP-LC3 puncta formation was quantified as previously described. In brief, PC-12 cells grown on coverslips in a 6-well plate were fixed in 4% paraformaldehyde for 20 minutes at room temperature and then rinsed with PBS. Slides were mounted with FluorSave™ mounting media (Calbiochem, San Diego, Calif.) and examined by fluorescence microscopy. The number of GFP-positive cells with GFP-LC3 puncta formation was examined under the Nikon ECLIPSE 80i microscope. Representative images were captured with CCD digital camera Spot RT3™ (Diagnostic Instruments, Inc., Melville, N.Y.). To quantify for autophagy, the percentage of cells with punctate GFP-LC3 fluorescence was calculated by counting the number of the cells with punctate GFP-LC3 fluorescence in GFP-positive cells. A minimum of 150 cells from 3 randomly selected fields was scored.
The data of PC-12 cells with GFP-LC3 expression without any treatment of neferine was used as control.

[4] = system: mutant huntingtin EGFP-HDQ 55/74; assay: Removal of mutant huntingtin EGFP-HDQ 55/74, immunoblotting against EGFP; format: cell-based, rat; conditions: 7.5 μM neferine, 24 hours, transfected PC-12 cells (FIG. 3)
Procedure: PC-12 cells were transfected transiently with EGFP-HDQ 55/74 plasmids for 24 hours using Lipofectamine Plus LTX reagent (Invitrogen) according to the manufacturer's protocol. The transfected cells were then treated with 7.5 μM neferine for 24 hours. The removal of mutant huntingtin, EGFP-HDQ 55 and 74, was then quantitated by immunoblotting with antibody against EGFP.

[5] = system: Atg7 wild-type mouse embryonic fibroblasts (Atg7+/+); assay: GFP-LC3 puncta in Atg7 wild-type MEFs; format: cell-based; conditions: 7.5 μM neferine, 24 h, Atg7+/+ MEFs (FIGS. 4A, 4B)
Procedure: (§2) GFP-LC3 puncta formation was quantified as previously described. In brief, both Atg7 wild-type and deficient mouse embryonic fibroblasts (MEFs) grown on coverslips in a 6-well plate were treated with indicated concentrations of neferine. The cells were then fixed in 4% paraformaldehyde for 20 minutes at room temperature and then rinsed with PBS. Slides were mounted with FluorSave™ mounting media (Calbiochem, San Diego, Calif.) and examined by fluorescence microscopy. The number of GFP-positive cells with GFP-LC3 puncta formation was examined under the Nikon ECLIPSE 80i microscope. Representative images were captured with CCD digital camera Spot RT3™ (Diagnostic Instruments, Inc., Melville, N.Y.). To quantify for autophagy, the percentage of cells with punctate GFP-LC3 fluorescence was calculated by counting the number of the cells with punctate GFP-LC3 fluorescence in GFP-positive cells. A minimum of 150 cells from 3 randomly selected fields was scored.

[6] = system: PC-12 cells transfected with mutant huntingtin EGFP-HDQ 55 and 74; assay: MTT cytotoxicity assay in PC-12 cells expressing mutant huntingtin; format: cell-based, rat; conditions: 7.5 μM neferine, 24 h, PC-12 cells with EGFP-HDQ 55 or EGFP-HDQ 74 (FIG. 7)
Procedure: Cell cytotoxicity assay: Cytotoxicity was assessed using the 3-(4,5-dimethylthiazol-2-yl)-2,5-diphenyltetrazolium bromide assay. PC-12 cells were transfected with or without mutant huntingtin EGFP-HDQ 55 and 74 for 16 h, the PC-12 cells (4000 cells) were then seeded on 96-well plates per well and then exposed to 7.5 μM of neferine for 24 h […]. Subsequently, 10 μL of MTT reagents was added to each well and incubated at 37° C. for 4 hours, followed by the addition of 100 μL solubilization buffer (10% SDS in 0.01 mol/L HCl) and overnight incubation. Absorbance at 585 nm was determined from each well on the following day. The percentage of cell viability was calculated using the following formula: Cell viability (%)=Cells number treated/Cells number DMSO control×100. Data was obtained from three independent experiments.

[7] = system: AMPK-mTOR signaling pathway; assay: Detection of mTOR signaling marker proteins (p-AMPK, p-p70S6K) and LC3-II by western blot; format: cell-based, rat
Procedure: PC-12 cells were treated with neferine (7.5 μM) from 0-24 h. Cells treated with 0.3 μM of rapamycin (Rap) for 24 h were used as the positive control. Cell lysate was then harvested and analyzed for p-AMPK, AMPK, p-p70S6K, p70S6K and α-tubulin respectively. PC-12 cells were treated with 7.5 μM of neferine with or without AMPK inhibitor (compound C, CC, 5 μM) for 24 h for the detection of LC3-II marker. Cell lysates were analyzed for LC3 I/II and β-actin, respectively. After that, the membrane was further incubated with HRP-conjugated secondary antibodies for 60 minutes. Finally, protein bands were visualized by using the ECL Western Blotting Detection Reagents (Invitrogen).

[8] = system: Atg7-knockout mouse embryonic fibroblasts (Atg7−/−); assay: GFP-LC3 puncta in Atg7 deficient MEFs; format: cell-based; conditions: 7.5 μM neferine, 24 h, Atg7−/− MEFs (FIGS. 4A, 4B)
Procedure: as §2

[9] = system: EGFP-HDQ74 transfected Atg7 deficient MEFs; assay: Mutant huntingtin aggregates in EGFP-HDQ74 transfected Atg7 deficient MEFs; format: cell-based, mouse; conditions: 7.5 μM neferine, 24 h, Atg7−/− cells (FIGS. 5A, 5B)
Procedure: as §1

LC3-II = assay: Detection of autophagic marker protein LC3 conversion (western blot); format: cell-based, rat; conditions: PC-12 cells, with lysosomal protease inhibitors E64d and pepstatin A (FIG. 1D)
Procedure: After neferine treatments with or without autophagy inhibitor (3-Methyladenine, 3-MA) and protease inhibitor (10 μg/mL E64D and pepstain A), cells were harvested and lysed in RIPA buffer (Cell Signaling Technologies Inc., Beverly, Mass.). The cell lysates were then resolved by SDS-PAGE. After electrophoresis, the proteins from SDS-PAGE were transferred to nitrocellulose membrane which was then blocked with 5% non-fat dried milk for 60 minutes. The membrane was then incubated with LC3 primary antibodies (1:1000) in TBST overnight at 4° C. After that, the membrane was further incubated with HRP-conjugated secondary antibodies for 60 minutes. Finally, protein bands were visualized by using the ECL Western Blotting Detection Reagents (Invitrogen, Paisley, Scotland, UK).
To further confirm its autophagic activity, PC-12 cells treated with neferine were analyzed by western blot for LC3-I to LC3-II conversion. To differentiate that the autophagy effect was due to LC3-II formation, rather than failure of fusion between autophagosome and lysosomes, level of LC3-II was assayed with the presence of two lysosomal inhibitors (E64d and pepstatin A) that […].

PC-12 cells [10] = assay: Cytotoxicity, crystal violet staining cell viability assay; format: cell-based, rat; conditions: 7.5 μM neferine, 24 hours, PC-12 cells (FIGS. 6A, 6B)
Procedure: The test compound of neferine was dissolved in dimethyl sulfoxide (DMSO) at a final concentration of 100 mmol/L and stored at −20° C. For cell viability assay measured by crystal violet staining, PC-12 cells were incubated in 35 mm disc followed by the addition of 7.5 μM neferine for 24 hours. The cells were then incubated with crystal violet for 10 minutes followed by a ddH2O wash. The stained cell images were captured by CCD digital camera Spot RT3™ under the Nikon ECLIPSE 80i microscope with 4× magnification. Cell viability was quantified by dissolving stained cells in 10% acetic acid (200 μL/well). The colorimetric reading of the solute mixture was then determined by spectrophotometer at OD 560 nm. The percentage of cell viability was calculated using the following formula: Cell viability (%)=Cells number treated/Cells number DMSO control×100. Data were obtained from three independent experiments.

[11] = system: PC-12 cells expressing GFP-LC3; assay: Quantification of neferine-mediated autophagy (GFP-LC3 puncta) in the presence of compound C; format: cell-based, rat; conditions: 7.5 μM neferine plus compound C 5 μM, PC-12 cells (FIGS. 2B, 2C)
Procedure: GFP-LC3 puncta formation was quantified as previously described. In brief, PC-12 cells expressing GFP-LC3 were treated with 7.5 μM neferine in the presence of compound C (CC, 5 μM) for 12 h. The cells were then fixed in 4% paraformaldehyde for 20 minutes at room temperature and then rinsed with PBS. Slides were mounted with FluorSave™ mounting media (Calbiochem) and examined by fluorescence microscopy. To quantify for autophagy, the percentage of cells with punctate GFP-LC3 fluorescence was calculated by counting the number of the cells with punctate GFP-LC3 fluorescence in GFP-positive cells. A minimum of 150 cells from 3 randomly selected fields was scored.

mutant huntingtin = conditions: mouse model of Huntington's disease, ref. [10]; cited from earlier work
[12] = 7.5 μM neferine, 0-24 h, PC-12 cells (FIG. 2A)

O=c1c(O)c(-c2ccc(O)c(O)c2)oc2cc(O)ccc12 [fisetin]
bioavailability [1]: poor bioavailability
effective concentration [1]: high effective concentration
lipophilicity [1]: low lipophilicity

COc1ccc(C[C@@H]2c3cc(Oc4cc(C[C@@H]5c6cc(OC)c(OC)cc6CCN5C)ccc4O)c(OC)cc3CCN2C)cc1 [neferine]
clearance of mutant huntingtin EGFP-HDQ74 inclusions [2]: enhance the clearance of mutant huntingtin EGFP-HDQ74 inclusions
percentage of cells with GFP-LC3 puncta formation (PC-12 cells [3]; 7.5 μM neferine, 24 h, PC-12 cells with GFP-LC3 expression, vs untreated control (FIGS. 1B, 1C)): increased the percentage of cells with GFP-LC3 puncta formation significantly
GFP-LC3 puncta formation in presence of autophagy inhibitor 3-MA (PC-12 cells [3]; neferine plus 3-Methyladenine (3-MA), PC-12 cells): significant reduction in GFP-LC3 puncta formation
clearance of overexpressed EGFP-tagged mutant huntingtin EGFP-HDQ 55 [4]: enhanced the clearance
clearance of overexpressed EGFP-tagged mutant huntingtin EGFP-HDQ 74 [4]: enhanced the clearance
GFP-LC3 puncta formation [5]: induce GFP-LC3 puncta formation
cell death induced by mutant huntingtin (cell viability, MTT) [6]: attenuated cell death induced by mutant huntingtin
LC3-II level in presence of AMPK inhibitor compound C ([7]; 7.5 μM neferine plus compound C 5 μM, 24 h, PC-12 cells, western blot (FIG. 2D)): decrease in LC3-II level
p70S6K phosphorylation [7, 12]: concomitant reduction in its downstream p70S6K phosphorylation
phosphorylation of AMPK [7, 12]: activate the phosphorylation of AMPK in a time dependent manner
GFP-LC3 puncta formation [8]: not in Atg7-knockout mouse embryonic fibroblasts
clearance of mutant huntingtin EGFP-HDQ74 inclusions [9]: not in autophagy-deficient cells
rate of LC3-II formation (LC3-I to LC3-II conversion) (LC3-II): increases the rate of LC3-II formation
cytotoxicity / morphological damage (crystal violet assay) (PC-12 cells [10]): no significant morphological damage
neferine-induced GFP-LC3 puncta formation in presence of AMPK inhibitor compound C [11]: significant reduction in neferine-induced GFP-LC3 puncta formation

C1COC(NC(C2CC2)C2CC2)=N1 [rilmenidine]
toxicity of mutant huntingtin (mutant huntingtin): attenuate the toxicity of mutant huntingtin
